Assay results: patent publication US8716475B2, “2-aminopyrimidine modulators of the histamine H4 receptor” (Janssen Pharmaceutica NV, priority 2007, dated 2014)

Biological target: T1, human H4 receptor (Homo sapiens, UniProt Q9H3N8)
T1 construct: expressed in transfected cells
Assay: Binding Assay on Recombinant Human Histamine H4 Receptor
Conditions: Table 2; [3H] histamine competition binding, membranes of SK-N-MC cells transfected with human H4 receptor; average of results
Outline: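 Radioligand binding used membranes from SK-N-MC cells stably or transiently expressing human H4, prepared in 50 mM Tris/5 mM EDTA. Nonspecific binding was defined with 100 μM histamine. Bound radioactivity was counted after filtration on PEI-treated GF/C filters, and ">" values are the highest concentration tested.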

T1 sequence (Q9H3N8 whole entry): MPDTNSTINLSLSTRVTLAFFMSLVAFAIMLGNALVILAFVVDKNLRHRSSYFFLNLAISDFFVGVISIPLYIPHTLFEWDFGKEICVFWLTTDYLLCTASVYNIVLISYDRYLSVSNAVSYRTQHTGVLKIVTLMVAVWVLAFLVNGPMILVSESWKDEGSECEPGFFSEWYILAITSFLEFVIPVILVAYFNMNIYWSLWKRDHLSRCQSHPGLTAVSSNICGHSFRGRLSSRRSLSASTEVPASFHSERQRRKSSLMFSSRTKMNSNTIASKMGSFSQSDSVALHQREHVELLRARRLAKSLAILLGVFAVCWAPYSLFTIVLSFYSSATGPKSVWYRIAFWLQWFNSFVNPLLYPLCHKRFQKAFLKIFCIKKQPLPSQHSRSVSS

| Compound | Ki |
| --- | --- |
| Nc1nc(C2CCCC2)cc(N2CCC3(CCCN3)C2)n1 (single isomer, unassigned) [Example 258, 4-Cyclopentyl-6-(cis-1,7-diaza-spiro[4.4]non-7-yl)-pyrimidin-2-ylamine] | 34 nM |
| CC(C)c1cc(N2CC3NCCOC3C2)nc(N)n1 (single isomer, unassigned) [Example 94, 4-(trans-Hexahydro-pyrrolo[3,4-b][1,4]oxazin-6-yl)-6-isopropyl-pyrimidin-2-ylamine] | 497 nM |
